Earlier results in US11058138B2, “Composition for calcium supplementation” (ABIOGEN PHARMA S.P.A., priority 2017, dated 2021).

Conditions: versus calcium carbonate

O=C([O-])CC(O)(CC(=O)[O-])C(=O)[O-].O=C([O-])CC(O)(CC(=O)[O-])C(=O)[O-].[Ca+2].[Ca+2].[Ca+2] [calcium citrate]
Bioavailability higher than that of calcium carbonate: 20-30%
